Laboratory results reported in ChEMBL document CHEMBL1154301, “A naturally occurring brominated furanone covalently modifies and inactivates LuxS” (Bioorg Med Chem Lett, 2009).
Active and inactive are the calls of the source. No cut-off for these calls is given here.

Experiments:
[1] = biological target: T1, S-ribosylhomocysteine lyase (Escherichia coli K-12) (UniProt P45578); assay: Inhibition of Escherichia coli LuxS using S-ribosyl-homocysteine substrate at pH 7 after 10 mins by fluorimetric assay
T1 sequence (whole entry): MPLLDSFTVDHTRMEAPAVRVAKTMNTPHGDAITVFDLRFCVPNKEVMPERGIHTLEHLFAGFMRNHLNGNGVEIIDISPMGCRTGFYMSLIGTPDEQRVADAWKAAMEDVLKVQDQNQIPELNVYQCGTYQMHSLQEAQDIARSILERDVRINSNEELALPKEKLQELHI

[2] = biological target: T1, S-ribosylhomocysteine lyase (Escherichia coli K-12); assay: Inhibition of Escherichia coli LuxS using variable levels of S-ribosyl-homocysteine substrate at pH 7 after 10 mins by fluorimetric assay
[3] = biological target: T1, S-ribosylhomocysteine lyase (Escherichia coli K-12); assay: Inhibition of Escherichia coli LuxS using variable levels of S-ribosyl-homocysteine substrate by UV/Vis absorbance spectroscopy; conditions: TDE = time-dependent effect
[4] = biological target: T1, S-ribosylhomocysteine lyase (Escherichia coli K-12); assay: Inhibition of Escherichia coli LuxS assessed as induction of covalent modification by UV/Vis absorbance spectroscopy
[5] = biological target: T1, S-ribosylhomocysteine lyase (Escherichia coli K-12); assay: Inhibition of Escherichia coli LuxS assessed as formation of enzyme-adduct formation by mass spectrometry
[6] = biological target: T1, S-ribosylhomocysteine lyase (Escherichia coli K-12); assay: Inhibition of Escherichia coli LuxS assessed as induction of Cys126 alkylation by MALDI-MS method

inhibition [1] | inhibition [2] | inhibition [3] | inhibition [4] | inhibition [5] | inhibition [6] | SMILES
Dose-dependent effect | Active | tde | Active | Active | Active | CCCCC1=C(Br)/C(=C/Br)OC1=O
Dose-dependent effect | – | – | – | – | – | O=C1C=C/C(=C/Br)O1
Active | – | – | – | – | – | O=C1C=CC(=C(Br)Br)O1
Active | – | – | – | – | – | CCCCC1=CC(=C(Br)Br)OC1=O
